The text below walks through data of ChEMBL document CHEMBL1149403, “Design, synthesis, and anti-Helicobacter pylori activity of erythromycin A (E)-9-oxime ether derivatives” (2006).

In brackets after ≈: the same amount, converted by molar mass.

Usually MIC stands for the lowest concentration that inhibits growth of the organism.

The subject of the assay is Helicobacter pylori. Kind of assay: Inhibitory activity against Helicobacter pylori NCTC-10638. Format: functional.
Turning to `CC[C@H]1OC(=O)[C@H](C)C(=O)[C@H](C)C(O[C@@H]2O[C@H](C)C[C@H](N(C)C)[C@@H]2O)[C@](C)(OC)C[C@@H](C)/C(=N\OCOc2ccccc2OC)[C@H](C)[C@@H](O)[C@]1(C)O` (some centres not stated), the MIC came to 0.04 µg/mL (≈ 0.0541 µM). On to `CC[C@H]1OC(=O)[C@H](C)C(O[C@H]2C[C@](C)(OC)[C@@H](O)[C@@H](C)O2)[C@H](C)C(O[C@@H]2O[C@H](C)C[C@H](N(C)C)[C@@H]2O)[C@](C)(O)C[C@@H](C)/C(=N\OCOc2ccccc2OC)[C@H](C)[C@@H](O)[C@]1(C)O` (some centres not stated), for which the MIC was found to be 0.03 µg/mL (≈ 0.0339 µM). The MIC values of the last two compounds are within 1.5-fold of each other. The figure for `CC[C@H]1OC(=O)[C@H](C)C(=O)[C@H](C)C(O[C@@H]2O[C@H](C)C[C@H](N(C)C)[C@@H]2O)[C@](C)(OC)C[C@@H](C)/C(=N\OCOc2ccc(OC)cc2)[C@H](C)[C@@H](O)[C@]1(C)O` (some centres not stated) is 0.02 µg/mL (≈ 0.0271 µM); for `CC[C@H]1OC(=O)[C@H](C)C(O[C@H]2C[C@](C)(OC)[C@@H](O)[C@@H](C)O2)[C@H](C)C(O[C@@H]2O[C@H](C)C[C@H](N(C)C)[C@@H]2O)[C@](C)(OC)C[C@@H](C)/C(=N\OCOc2ccccc2OC)[C@H](C)[C@@H](O)[C@]1(C)O` (some centres not stated) it is 0.02 µg/mL (≈ 0.0222 µM); for `CC[C@H]1OC(=O)[C@H](C)C(O[C@H]2C[C@](C)(OC)[C@@H](O)[C@@H](C)O2)[C@H](C)C(O[C@@H]2O[C@H](C)C[C@H](N(C)C)[C@@H]2O)[C@](C)(O)C[C@@H](C)/C(=N\OCOc2ccc(OC)cc2)[C@H](C)[C@@H](O)[C@]1(C)O` (some centres not stated) it is 0.02 µg/mL (≈ 0.0226 µM). Turning to `CC[C@H]1OC(=O)[C@H](C)C(O[C@H]2C[C@](C)(OC)[C@@H](O)[C@@H](C)O2)[C@H](C)C(O[C@@H]2O[C@H](C)C[C@H](N(C)C)[C@@H]2O)[C@](C)(OC)C[C@@H](C)/C(=N\OCOc2ccc(OC)cc2)[C@H](C)[C@@H](O)[C@]1(C)O` (some centres not stated), inhibition of growth (MIC) required 0.03 µg/mL (≈ 0.0334 µM). Turning to `CC[C@H]1OC(=O)[C@H](C)[C@@H](O[C@H]2C[C@@](C)(OC)[C@@H](O)[C@H](C)O2)[C@H](C)[C@@H](O[C@@H]2O[C@H](C)C[C@H](N(C)C)[C@H]2O)[C@](C)(OC)C[C@@H](C)C(=O)[C@H](C)[C@@H](O)[C@]1(C)O` [CLARITHROMYCIN], it took 0.02 µg/mL (≈ 0.0267 µM) to inhibit growth (MIC).
